Measurements as given in publication PMC10258794, “To Fold or Not to Fold: Diastereomeric Optimization of an α-Helical Antimicrobial Peptide” (Journal of Medicinal Chemistry, 2023).
In brackets after ≈: the same amount, converted by molar mass. Where two headings read alike, the source gives them in different places.

What was measured:
Staphylococcus epidermis = assay: MIC broth microdilution, Staphylococcus epidermis; assay type: cell-based; conditions: pH 7.4
Method: (§1) Antimicrobial activity was determined for all peptides on E. coli W3110, P. aeruginosa PAO1, A. baumannii ATCC19606, K. pneumoniae NCTC418, and methicillin-resistant S. aureus COL and for selected peptides on P. aeruginosa PA14 and the polymyxin B-resistant derivatives PA14 4.13, PA14 4.18, and PA14 2P4 as well as the clinical isolates ZEM-1A and ZEM9A, K. pneumoniae OXA-48, Enterobacter cloacae, Stenotrophomonas maltophilia, B. cenocepacia, and Staphylococus epidermis. To determine the MIC, the broth microdilution method was used.[75] A single bacterial colony was grown in LB medium overnight at 37 °C and 180 rpm shaking. The compounds were prepared as stock solutions of 2 mg/mL in sterilized milliQ deionized water, added to the first well of 96-well sterile, polypropylene round-bottom microtiter plates (TPP, untreated, Corning Incorporated, Kennebunk, USA), and diluted serially by 1/2. […] The bacterial inoculum was prepared by measuring the absorbance of the overnight culture, which was diluted to concentration of the bacteria was quantified by measuring absorbance at 600 nm and diluted to an OD600 of 0.022 in MH medium pH 7.4 (Sigma-Aldrich, Buchs, Switzerland). The sample solutions (150 μL) were mixed with 4 μL of diluted bacterial suspension with a final inoculation of about 5 × 10^5 CFU. For each test, two columns of the plate were kept for sterility control (MH medium only) and growth control (MH medium with bacterial inoculum, no compound). […] The plates were incubated at 37 °C for 16–20 h under static conditions. 15 μL of 3-(4,5-dimethylthiazol-2-yl)-2,5-diphenyltetrazolium bromide (MTT)[76] (1 mg/mL in sterilized milliQ deionized water) was added to each well, and the plates were incubated at room temperature until MTT staining was completed. The MIC was defined as the lowest concentration of the dendrimer that inhibits the visible growth of the tested bacteria (yellow) with the unaided eye.

P. aeruginosa ZEM9A = assay: microbe, parasite or virus in culture; assay type: cell-based, Pseudomonas aeruginosa; conditions: pH 7.4
Method: as §1

[1] = system: Stenotrophomonas maltophilia; assay: microbe, parasite or virus in culture; assay type: cell-based; conditions: pH 7.4
Method: as §1

PA14 4.18 (pmrB) = assay: microbe, parasite or virus in culture; conditions: supplementary CSV
In short: (§2)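 Growth inhibition is judged by eye after MTT addition, the MIC being the lowest compound concentration whose well stays yellow. Bacteria from overnight LB cultures are diluted in MH medium at pH 7.4 to roughly 5 × 10^5 CFU and incubated with doubling dilutions at 37 °C, unshaken, 16–20 h.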

Enterobacter cloacae = assay: microbe, parasite or virus in culture; conditions: pH 7.4
In short: as §2

P. aeruginosa ZEM-1A = assay: microbe, parasite or virus in culture; conditions: pH 7.4
In short: as §2

P. aeruginosa PA14 = assay: microbe, parasite or virus in culture
In short: as §2

PA14 4.13 (phoQ) = assay: microbe, parasite or virus in culture; conditions: supplementary CSV
In short: as §2

PA14 2P4 (pmrB) = assay: microbe, parasite or virus in culture; conditions: supplementary CSV
In short: as §2

Burkolderia cenocepacia = assay: microbe, parasite or virus in culture; conditions: MDR strain; MH broth pH 7.4, 16–20 h, 37 °C
HEK293 cells = assay: Alamar blue cytotoxicity, HEK293; assay type: cell-based, human; conditions: 24 h, mean ± SD, n = 3, read-out: Toxicity on HEK293 cells
Method: The A549 human lung adenocarcinoma cells are derived from a patient and were kindly given to us by Dr. Georgia Konstatinidou (Pharmacology Institute, Bern University). HEK293T cells were obtained from ATCC (CRL-11268). A549 and HEK293 were cultured in an incubator at 37 °C with 5% CO2 in RPMI-1640 (Gibco) and DMEM (Gibco) containing 10% fetal bovine serum (Thermo Fisher), 100 I.U./mL penicillin, and 100 μg/mL streptomycin (Gibco).
The viability of the cells was assessed with an AlamarBlue assay (ThermoFisher). Cells were seeded into 96-well plates, 4000 cells/well (HEK293) and 8000 cells/well (A549), the day before the experiment. Cells were then treated with the increasing concentration of the compound and incubated for 24 h at 37 °C in the presence of 5% CO2. The next day, the medium was removed and replaced by a 10% AlamarBlue solution in full growth medium (DMEM or RPMI-1640). The cells were incubated for 3–5 h at 37 °C with 5% CO2 in a humidified atmosphere. The fluorescence was then measured on a Tecan Infinite M1000 Pro plate reader at λex 560 nm and λem 590 nm. The value was normalized according to the untreated cells.

K. pneumoniae Oxa-48 = assay: MIC broth microdilution, K. pneumoniae Oxa-48; assay type: cell-based, Klebsiella pneumoniae; conditions: MDR strain; MH broth pH 7.4, 16–20 h, 37 °C
Method: as §1

K. pneumoniae NCTC418 = system: K. pneumoniae NCTC418
In short: as §2

E. coli W3110 = conditions: MH broth pH 7.4, 16–20 h, 37 °C
In short: as §2

P. aeruginosa PAO1 = system: P. aeruginosa PAO1
In short: as §2

A. baumannii ATCC19606 = system: A. baumannii ATCC19606
In short: as §2

S. aureus COL MRSA = system: S. aureus COL MRSA
In short: as §2

[2] = system: Pseudomonas aeruginosa, Klebsiella pneumoniae, Acinetobacter baumannii, Escherichia coli, and methicillin-resistant Staphylococcus aureus; conditions: summary of Table 1
In short: as §2

[3] = MH broth pH 7.4, 16–20 h, 37 °C
[4] = supplementary CSV, ranges of Table 1 given as one number

CC(C)C[C@H](NC(=O)[C@H](CC(C)C)NC(=O)[C@H](CC(C)C)NC(=O)[C@H](CCCCN)NC(=O)[C@@H](CC(C)C)NC(=O)[C@H](CC(C)C)NC(=O)[C@H](CCCCN)NC(=O)[C@@H](CC(C)C)NC(=O)[C@@H](CC(C)C)NC(=O)[C@@H](CCCCN)NC(=O)[C@@H](N)CCCCN)C(N)=O [HP11, KkllKLlKLLL]
MIC Staphylococcus epidermis (Staphylococcus epidermis): 4 µg/mL (≈ 3.03 µM)
MIC ZEM9A (P. aeruginosa ZEM9A): 8 µg/mL (≈ 6.05 µM)
MIC Stenotrophomonas maltophilia [1]: 4 µg/mL (≈ 3.03 µM)
MIC P. aeruginosa PA14 4.18 (PA14 4.18 (pmrB)): 8 µg/mL (≈ 6.05 µM)
MIC Enterobacter cloacae (Enterobacter cloacae): 4 µg/mL (≈ 3.03 µM)
MIC ZEM-1A (P. aeruginosa ZEM-1A): 2 µg/mL (≈ 1.51 µM)
MIC PA14 (P. aeruginosa PA14; [3]): 1 µg/mL (≈ 0.757 µM)
MIC P. aeruginosa PA14 (P. aeruginosa PA14; supplementary CSV): 1 µg/mL (≈ 0.757 µM)
MIC P. aeruginosa PA14 4.13 (PA14 4.13 (phoQ)): 2 µg/mL (≈ 1.51 µM)
MIC P. aeruginosaPA14 2P4 (PA14 2P4 (pmrB)): 16 µg/mL (≈ 12.1 µM)
MIC Burkolderia cenocepacia (Burkolderia cenocepacia): >64 µg/mL
IC50 (HEK293 cells): 64.8 ± 4.3 µM
MIC K. pneumoniae Oxa-48 (K. pneumoniae Oxa-48): 4 µg/mL (≈ 3.03 µM)
MIC K. pneumoniae NCTC418 (K. pneumoniae NCTC418; [3]): 4 to 8 µg/mL
MIC K. pneumoniae NCTC418 (K. pneumoniae NCTC418; [4]): 6 µg/mL (≈ 4.54 µM)
MIC E. coli W3110 (E. coli W3110): 2 µg/mL (≈ 1.51 µM)
MIC P. aeruginosa PAO1 (P. aeruginosa PAO1; [3]): 2 to 4 µg/mL
MIC P. aeruginosa PAO1 (P. aeruginosa PAO1; [4]): 3 µg/mL (≈ 2.27 µM)
MIC A. baumannii ATCC19606 (A. baumannii ATCC19606; [3]): 2 µg/mL (≈ 1.51 µM)
MIC A. baumannii ATCC19606 (A. baumannii ATCC19606; [4]): 2 µg/mL (≈ 1.51 µM)
MIC S. aureus COL MRSA (S. aureus COL MRSA; [3]): 2 µg/mL (≈ 1.51 µM)
MIC S. aureus COL (S. aureus COL MRSA; [4]): 2 µg/mL (≈ 1.51 µM)
MIC, span over the five bacterial strains [2]: 2 to 8 µg/mL
MIC S. aureus Newman (S. aureus Newman; [3]): 2 µg/mL (≈ 1.51 µM)
MIC S. aureus Newmann (S. aureus Newman; supplementary CSV): 2 µg/mL (≈ 1.51 µM)
